The text below walks through data of ChEMBL document CHEMBL5352465, “Small molecules containing chalcogen elements (S, Se, Te) as new warhead to fight neglected tropical diseases” (Eur J Med Chem, 2023).

A word on the IC50: it is the concentration at which inhibition is half-maximal. One may read the IC90 as the concentration needed for an effect of 90%. What is called inhibition is the percentage by which the read-out fell short of the control.

Each structure is given as a SMILES string.

Series [1] has as its system Leishmania donovani. As to the kind of experiment: Antileishmanial activity against Leishmania donovani promastigotes assessed as inhibition of parasite growth measured after 24 hrs by Alamar blue based analysis. Type of series: functional, organism-based.
Series [2] relates to Leishmania aethiopica. The experiment in a line: Antileishmanial activity against Leishmania aethiopica amastigotes assessed as inhibition of parasite growth measured after 24 hrs by Alamar blue based analysis. Type of series: functional, organism-based.
Series [3] has as its system Leishmania infantum. As to the kind of experiment: Antileishmanial activity against Leishmania infantum promastigotes assessed as reduction in cell viability incubated for 24 hrs by propidium iodide staining based flow cytometry assay. Type of series: functional, organism-based. On the technique in general: A flow cytometer gives signals particle by particle.
The test system of series [4] is Leishmania panamensis. The experiment in a line: Antileishmanial activity against Leishmania panamensis MHOM/CO/87/UA140-EpiR-GFP strain amastigotes assessed as inhibition of parasite growth incubated for 72 hrs by flow cytometric analysis. Type of series: functional, organism-based.
Series [5] has as its system Leishmania panamensis. The experiment in a line: Antileishmanial activity against Leishmania panamensis MHOM/CO/87/UA140-EpiR-GFP strain promastigotes assessed as inhibition of parasite growth incubated for 72 hrs by flow cytometric analysis. Type of series: functional, organism-based.
In series [6] the test system is Trypanosoma cruzi. As to the kind of experiment: Antitrypanosomal activity against bloodstream Trypanosoma cruzi Y strain trypomastigotes assessed as parasite growth inhibition incubated for 24 hrs by light microscopic analysis. Type of series: functional, organism-based.
Series [7] concerns Trypanosoma cruzi. As to the kind of experiment: Antitrypanosomal activity against Trypanosoma cruzi Tulahuen strain trypomastigotes assessed as parasite growth inhibition incubated for 18 hrs by light microscopic analysis. Type of series: functional.
In series [8] the test system is Leishmania tropica. As to the kind of experiment: Antileishmanial activity against Leishmania tropica promastigotes assessed as inhibition of parasite growth. Type of series: functional, organism-based.
Series [9] relates to Trypanosoma cruzi. The experiment in a line: Antitrypanosomal activity against Trypanosoma cruzi epimastigote Dm28c strain assessed as parasite growth inhibition incubated for 96 hrs by Neubauer chamber based light microscopic analysis. Type of series: functional, organism-based.
The subject of series [10] is Trypanosoma brucei. As to the kind of experiment: Antitrypanosomal activity against bloodstream Trypanosoma brucei 427 strain assessed as parasite growth inhibition measured after 24 hrs by propidium iodide staining based flow cytometer method. Type of series: functional, organism-based. As to conditions: Trypanosoma brucei, 427, 24 h.
Series [11] is described as follows: Selectivity index, ratio of CC50 for human CC cells to ratio of IC50 for antileishmanial activity against Leishmania major promastigote. Type of series: toxicity. The settings on record: read-out: Ratio CC50/IC50.
A short description of series [12]: Selectivity index, ratio of CC50 for […] to ratio of IC50 for antileishmanial activity against Leishmania infantum promastigote. Type of series: toxicity, cell-based. As to conditions: read-out: Ratio CC50/IC50.
The test system of series [13] is Leishmania major. The experiment in a line: Antileishmanial activity against Leishmania major promastigote assessed as inhibition of parasite growth. Type of series: functional, organism-based.
In series [14] the test system is Leishmania amazonensis. The experiment in a line: Antileishmanial activity against Leishmania amazonensis promastigotes assessed as inhibition of parasite growth. Type of series: functional, organism-based.
For series [15], the system named is Leishmania infantum. As to the kind of experiment: Antileishmanial activity against Leishmania infantum promastigotes assessed as reduction in cell viability. Type of series: functional, organism-based.
Series [16] deals with Trypanosoma brucei. The experiment in a line: Antitrypanosomal activity against bloodstream Trypanosoma brucei assessed as parasite growth inhibition measured after 72 hrs by resazurin staining based analysis. Type of series: functional, organism-based. On the technique in general: Alamar Blue is a resazurin reagent that responds to reducing activity.
In series [17] the test system is Trypanosoma brucei gambiense. The experiment in a line: Antitrypanosomal activity against bloodstream Trypanosoma brucei gambiense assessed as parasite growth inhibition measured after 72 hrs by resazurin staining based analysis. Type of series: functional, organism-based.
Series [18] can be described thus: Selectivity index, ratio of CC50 for rat L6 cells to IC50 for antitrypanosomal activity against bloodstream Trypanosoma brucei. The settings on record: read-out: Ratio CC50/IC50. Type of series: toxicity.
Series [19] can be described thus: Selectivity index, ratio of CC50 for rat L6 cells to IC50 for antitrypanosomal activity against bloodstream Trypanosoma brucei gambiense. Type of series: toxicity. As to conditions: read-out: Ratio CC50/IC50.
In series [20] the test system is Leishmania infantum. The experiment in a line: Antileishmanial activity against Leishmania infantum promastigotes assessed as inhibition of parasite growth. Type of series: functional, organism-based.
Series [21] relates to Leishmania infantum. As to the kind of experiment: Antileishmanial activity against Leishmania infantum amastigotes assessed as inhibition of parasite growth. Type of series: functional, organism-based.
Series [22] concerns Leishmania amazonensis. The experiment in a line: Antileishmanial activity against Leishmania amazonensis amastigotes assessed as inhibition of parasite growth. Type of series: functional, organism-based.
For series [23], the system named is Leishmania braziliensis. The experiment in a line: Antileishmanial activity against Leishmania braziliensis promastigotes assessed as inhibition of parasite growth. Type of series: functional, organism-based.
The target in series [24] is Cruzipain (Trypanosoma cruzi) (UniProt P25779). As to the kind of experiment: Inhibition of Trypanosoma cruzi recombinant Cruzaine using Z-FR-AMC as substrate preincubated for 10 mins followed by substrate addition by fluorimeter analysis.
Cruzipain (Trypanosoma cruzi), sequence (P25779 123-467 limits assumed): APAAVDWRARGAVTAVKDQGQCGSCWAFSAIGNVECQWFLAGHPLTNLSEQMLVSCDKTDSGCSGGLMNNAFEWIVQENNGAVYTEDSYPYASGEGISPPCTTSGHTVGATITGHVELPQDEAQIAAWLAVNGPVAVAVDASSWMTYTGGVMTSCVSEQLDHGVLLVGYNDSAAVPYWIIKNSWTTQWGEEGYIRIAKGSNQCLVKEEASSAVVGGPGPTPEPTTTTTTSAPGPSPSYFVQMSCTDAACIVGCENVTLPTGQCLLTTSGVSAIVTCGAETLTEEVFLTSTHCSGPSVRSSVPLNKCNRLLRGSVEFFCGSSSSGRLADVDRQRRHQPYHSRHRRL
The test system of series [25] is Trypanosoma cruzi. The experiment in a line: Antitrypanosomal activity against Trypanosoma cruzi Y strain epimastigotes assessed as parasite growth inhibition incubated for 48 hrs by spectrophotometric analysis. Type of series: functional, organism-based.
The subject of series [26] is Trypanosoma cruzi. As to the kind of experiment: Antitrypanosomal activity against bloodstream Trypanosoma cruzi Y strain trypomastigotes assessed as parasite growth inhibition incubated for 24 hrs by Neubauer chamber based light microscopic analysis. Type of series: functional, organism-based.
Series [27] is described as follows: Selectivity index, ratio of CC50 for cytotoxicity against Swiss mouse peritoneal macrophages to IC50 for antitrypanosomal activity against bloodstream Trypanosoma cruzi Y strain trypomastigotes. Type of series: toxicity. The settings on record: read-out: Ratio CC50/IC50.
Series [28] is described as follows: Selectivity index, ratio of LC50 for human U-937 cells to ratio of IC50 for antileishmanial activity against Leishmania panamensis MHOM/CO/87/UA140-EpiR-GFP strain promastigotes. Type of series: toxicity. The settings on record: read-out: Ratio LC50/IC50.
In series [29] the test system is Trypanosoma cruzi. The experiment in a line: Antitrypanosomal activity against Trypanosoma cruzi epimastigote assessed as parasite growth inhibition by optical density based analysis. Type of series: functional, organism-based.

Take `CC(=O)N1N=C(c2cccs2)CC1c1cc(-c2ccc(C)cc2)nn1-c1ccccc1` (configuration not stated): the IC50 in series [1] came out at 0.16 µM; in [2], 2.24 µM.

As to `CCc1cc(-c2csc(-c3ccc(-n4ccnc4CNCCN)cc3OCCN3CCNC3=O)n2)ccc1-c1ccccc1`, the IC50 in series [3] worked out at 8.6 µM.

Take `O=C1C=C(c2ccc(C(F)(F)F)cc2)S(=O)(=O)c2ccc(F)cc21`: the IC50 in series [4] worked out at 6.72 µM; in series [5] it was 3.24 µM.

Turning to `CC(c1cccc2ccccc12)n1cc(CCOc2ccc(-c3ccc(-c4nc5ccc(C(=N)N)cc5[nH]4)s3)cc2)nn1` (configuration not stated), the IC50 in series [6] is 3.07 µM. Besides, the IC90 in series [7] came out at 7.78 µM.

For the molecule `CCc1cc(-c2csc(-c3ccc(-n4ccnc4CNCCN)cc3OCCN3CCNC3=O)n2)cc2ccccc12`, the IC50 in [3] was 5.1 µM.

Consider `O=C(Nc1nc2cnc(Cl)nc2s1)c1ccc(Cl)cc1`, for which the half-inhibitory concentration (IC50) in [8] was 7.5 µM.

`C/C(=N\NC(N)=S)c1ccc(Cl)c(Cl)c1Cl`: the IC50 in series [9] came to 29 µM.

With `CC(=O)OCC1OC([Se][Se]C2O[C@H](COC(C)=O)[C@@H](OC(C)=O)[C@@H](OC(C)=O)[C@H]2OC(C)=O)[C@H](OC(C)=O)[C@@H](OC(C)=O)C1OC(C)=O` (some centres not stated), the 50% inhibitory concentration (IC50) in [10] came out at 2.7 µM.

Consider `CC(=O)OCC1O[C@@H](OC(C)=O)[C@H]([Se][Se]C2O[C@H](COC(C)=O)[C@H](OC(C)=O)[C@H](OC(C)=O)[C@H]2OC(C)=O)[C@@H](OC(C)=O)[C@H]1OC(C)=O` (some centres not stated), for which the half-inhibitory concentration (IC50) in series [10] stood at 3.3 µM.

With `COCCCNc1nnc(-c2ccc([N+](=O)[O-])s2)s1`, in series [11], the selectivity ratio was determined as 2.

As for `O=C(Nc1nc2cnc(Cl)nc2s1)c1ccc(Cl)cc1Cl`, the half-maximal inhibitory concentration (IC50) in [8] turned out to be 0.5 µM.

For the molecule `O=[N+]([O-])c1ccc(-c2nnc(NCCCO)s2)s1`, in series [11], the selectivity ratio was determined as 14.

`O=C1c2ccccc2C(=O)N1Nc1nc(-c2ccc(Cl)cc2Cl)cs1`: in series [12], the selectivity ratio was 6.4.

On to `O=C1c2cccc3cccc(c23)C(=O)C1CCCCCCN=C=[Se]`, for which the half-maximal inhibitory concentration (IC50) in series [13] came to 0.03 µM; in [14], 0.2 µM.

As for `O=C1c2ccccc2C(=O)N1Nc1nc(-c2ccc3ccccc3c2)cs1`, the selectivity ratio in series [12] was found to be 12.5.

As for `Brc1ccc(-c2csc(N/N=C/c3ccccn3)n2)cc1`, the half-inhibitory concentration (IC50) in series [15] came out at 3.12 µM.

`Cc1ccc(-c2cc(C3CC(c4cccs4)=NN3)n(-c3ccccc3)n2)cc1` (configuration not stated): the figures for the IC50 in series [1] and in series [2] were 2.07 µM and 1.08 µM, respectively.

On to `CCOC(=O)C(Cc1ccccc1)N1C(=O)S/C(=C/Nc2cc(S(=O)(=O)N3CCOCC3)ccc2C)C1=S` (configuration not stated), for which the values for the IC50 in series [16] and in series [17] were 0.679 µM and 0.2 µM, respectively. Also, the selectivity ratio in series [18] is > 255; in series [19], > 870.

For `CCOC(=O)c1ccc(N/C=C2/SC(=O)N(C(Cc3ccccc3)C(=O)OCC)C2=S)cc1` (configuration not stated), the IC50 in [16] was 0.091 µM; in series [17], 0.027 µM. The selectivity ratio in [18] came out at 409; in series [19], 1400.

For `O=C(CSc1nc(-c2ccccc2)cc2cc(-c3ccccc3)nn12)N/N=C/c1ccccc1`, the half-inhibitory concentration (IC50) was found to be 4.92 µM in [20] and 5.85 µM in [21].

In the case of `C/C(=N\Nc1nc(-c2ccc(Cl)c(Cl)c2)c(C)s1)c1ccccn1`, the IC50 in series [15] turned out to be 2.73 µM.

Take `N=C(N)c1ccc2nc(-c3ccc(-c4ccc(OCCc5cn(Cc6cccc7ccccc67)nn5)cc4)s3)[nH]c2c1`: the concentration for half-maximal inhibition (IC50) in series [6] worked out at 2.14 µM. For the same molecule, the IC90 in series [7] was 5.78 µM.

On to `Cc1ccc([Te]Cc2ncc(-c3ccc(S(C)(=O)=O)cc3)[se]2)cc1`, for which the IC50 in series [22] amounted to 6.14 µM.

On to `C/C(=N\NC(N)=S)c1ccc(Cl)cc1Cl`, for which, in series [9], the IC50 was determined as 24.8 µM.

As for `NCCSc1ccnc2cc(Cl)ccc12`, the IC50 in [14] worked out at 52.9 µM; in series [23], 39.9 µM.

As for `C/C(=N\NC(N)=S)c1cc(Cl)ccc1Cl`, the half-maximal inhibitory concentration (IC50) in series [9] was 6.6 µM.

For the molecule `Cc1sc(N/N=C/c2ccccn2)nc1-c1ccc(Cl)c(Cl)c1`, the IC50 in [15] stood at 5.52 µM.

Consider `C/C(=N\Nc1nc(-c2ccc(F)cc2)cs1)c1ccccn1`, for which the IC50 in [15] stood at 0.42 µM.

Consider `CN(C)c1ccc(/C=N/NC(N)=S)cc1`, for which the inhibition in [24] is 70%.

On to `NC(=S)N/N=C(/C=C/c1ccccc1)c1ccccc1`, for which the figures for the IC50 in series [20] and in series [21] were 14.7 µM and 6.88 µM, respectively.

In the case of `NS(=O)(=O)c1ccc(O)c([N+](=O)[O-])c1`, in [25], the IC50 turned out to be 97.7 µM.

As for `C(=N\Nc1nnc(-c2ccccn2)s1)/c1ccccn1`, the IC50 in series [26] worked out at 9.5 µM. The selectivity ratio in series [27] was determined as 7.7.

As to `ClCCN(CCCl)c1nc(Cl)c(C2CC(c3ccc(Br)cc3)=NN2c2ccccc2)s1` (configuration not stated), the half-maximal inhibitory concentration (IC50) in [4] came out at 10.9 µM. For the same molecule, the selectivity ratio in series [28] amounted to 1.6.

In the case of `COc1cc(C2=NN(c3ccccc3)C(c3sc(N(CCCl)CCCl)nc3Cl)C2)cc(OC)c1OC` (configuration not stated), in series [4], the half-inhibitory concentration (IC50) came to 13.9 µM. Moreover, the selectivity ratio in [28] turned out to be 1.48.

Take `[Se]=C=NCCCCc1ccccc1` [PHENYLBUTYL ISOSELENOCYANATE]: the concentration for half-maximal inhibition (IC50) in series [13] amounted to 7.2 µM; in [14] it was 4.5 µM.

Take `OCCSc1ccnc2cc(Cl)ccc12`: the 50% inhibitory concentration (IC50) in series [14] and in series [23] was > 100 µM in each case.

Regarding `NC(=S)N/N=C/c1ccc[nH]1`, the IC50 in [29] turned out to be 27 µM. In series [24], the inhibition came out at 70%.

In the case of `Fc1ccc(-c2nnc(N/N=C/c3ccccn3)s2)cc1`, the IC50 in series [26] is 9.3 µM. Moreover, the selectivity ratio in [27] came to 6.

On to `CCC(C)Oc1cc(N)nc(Sc2cccc(Cl)c2)n1` (configuration not stated), for which the IC50 is 29.4 µM in [20] and > 0.25 µM in [21].
